Data as given in paper PMC11274883, “Anticancer Effect of Pt^[sequence], Pt^II5MESS, Pt^II56MESS and Their Platinum(IV)-Dihydroxy Derivatives against Triple-Negative Breast Cancer and Cisplatin-Resistant Colorectal Cancer” (Cancers, 2024).

How the values were obtained:
A2780 = experiment: WST-1 cytotoxicity, 72 h; format: cell-based; conditions: for IC50: mean ± SEM
Protocol: (§1) Cells were seeded in 96-well flat-bottom culture plates at a concentration of 1000 cells per well. […] After 72 h, the medium was removed and replaced with new medium. The cell viability reagent WST-1 (10 µL, Roche Diagnostics, Indianapolis, IN, USA) was added to each well. After an hour, the absorbance was measured at 450 nm using a versatile microplate reader (Bio-strategy, Campbellfield, VIC, Australia). Three separate experiments were performed, each with n = 3 replicates. GraphPad prism 10 was used to calculate apparent IC50 values using the nonlinear regression model Y = Bottom + (Top-Bottom)/(1 + 10^(X-LogIC50)) where Top and bottom are plateaus in the y-axis (% survival).

ADDP = experiment: WST-1 cytotoxicity, 72 h; format: cell-based; conditions: for IC50: mean ± SEM
Protocol: as §1

HT29 = experiment: WST-1 cytotoxicity, 72 h; format: cell-based; conditions: for IC50: mean ± SEM
Protocol: as §1

MCF−7 = experiment: WST-1 cytotoxicity, 72 h; format: cell-based; conditions: for IC50: mean ± SEM
Protocol: as §1

MDA−MB−231 = experiment: WST-1 cytotoxicity, 72 h; format: cell-based; conditions: for IC50: mean ± SEM
Protocol: as §1

HT29 cells [1] = experiment: TMRE mitochondrial membrane potential assay; format: cell-based; conditions: complexes at IC50, FCCP 20 µM
Protocol: (§2) Cells were then treated with an IC50 drug concentration for each complex. At 24, 48 or 72 h, DMEM was removed, and cells were washed with PBS. Then, cells were incubated with 1 µM tetramethylrhodamine, ethyl ester (TMRE) stain for 30 min. TMRE was then removed, and cells were washed twice with PBS (0.2% BSA), after which phenol red-free media was added. […] The cells were then stained with TMRE, as described above, and the resulting solution was scanned for fluorescence. Three independent experiments in triplicates were implemented.

MDA−MB−231 cells [2] = experiment: TMRE mitochondrial membrane potential assay; format: cell-based; conditions: complexes at IC50, FCCP 20 µM
Protocol: as §2

HT29 cells [3] = experiment: Label-free quantitative proteomics; format: cell-based, Homo Sapiens; conditions: HT29, IC50, 72 h
Protocol: (§3) The supernatant was then collected into 15 mL tubes, then the cells were washed with PBS and trypsinised. The detached cells were transferred to allocated tubes and centrifuged at 500× g for 5 min at 4 °C. Cell pellet was washed twice with PBS and then resuspended in 300 µL cell lysis buffer (RIPA) for 30 min on ice. Cell extracts were then centrifuged at 12,000× g for 15 min at 4 °C, and the supernatants (containing the proteins) were collected into Lo-Bind Eppendorf. The Bio-Rad protein assay (Bio-Rad, Hercules, CA, USA) was used to assess protein content. For protein extraction and delipidation 100 µL of the cell homogenate was moved to 1.7 mL Lo-Bind Eppendorf tubes and 450 µL methanol was added to the mixture and vortexed. Chloroform (150 µL) was next added and vortexed. Then, water (450 µL) was added to the mixture, vortexed and centrifuged for 5 min at 12,000× g, which formed the protein pellet at the organic/aqueous interface. The layer of chloroform was removed and then 400 µL of methanol was added. The sample was then vortexed and centrifuged at 12,000× g for 15 min. The supernatant was then aspirated and discarded. The pellet was then washed with methanol (400 µL). The supernatant was removed, and the pellets were air-dried overnight. Next, steps were performed for reduction, alkylation, and tryptic digestion of the protein. 0.1% RapiGest (Waters, Milford, MA, USA) in 50 mM aqueous ammonium bicarbonate (20 µL) was added to the air-dried pellet and vortexed for effective suspension. The pellet should completely dissolve. Then, 50 µL of 7 mM DTT in 50 mM aqueous ammonium bicarbonate was added, to give a final concentration of 5 mM DTT. Samples were then heated for 30 min at 60 °C and cooled to room temperature. Iodoacetamide (45 mM) in 50 mM aqueous ammonium bicarbonate was next added to give a concentration of 15 mM. The mixture was allowed to react in the dark for 30 min. Then, 10 ng/µL of Trypsin Gold, Mass spectrometry grade (Promega, NSW, Australia) was added for digestion to occur at room temperature overnight. And 50 µL of 4% (v/v) aqueous trifluoroacetic acid was then added to each tube. Samples were next heated for 45 min at 37 °C to effect decomposition of RapiGest. Samples were then centrifuged at 12,000× g for 10 min at 4 °C. Supernatants were then transferred to total recovery vials and run on a nanoAcquity Ultra-Performance Liquid Chromatography (UPLC) coupled with a Synapt G2-Si instrument (Waters, MA, USA) was used for label-free quantitative protein profiling. Nano-proteomics method is detailed in Method S1. Three independent experiments in triplicates were implemented, while all samples were analysed in a single run with a single injection (1 µL) for each trial. Mass spectrometry (MS) data were processed using Progenesis QI for proteomics (version 4.1, Nonlinear Dynamics, Newcastle upon Tyne, UK), and aligned using UniProt Homo Sapiens reference database IDEP9.6 utilised to cluster and retrieve the initial signature analyses. […] Enrichment studies were performed using gene lists that corresponded to the identified proteins. Overrepresentation analysis was performed based on Gene Ontology (GO) Biological Processes, GO Cellular Components, and GO Molecular Functions using iDEP. Enrichment maps and STRING apps were used to construct pathways networks and explore protein–protein interactions.

MDA−MB−231 cells [4] = experiment: Label-free quantitative proteomics; format: cell-based, Homo Sapiens; conditions: MDA−MB−231, IC50, 72 h
Protocol: as §3

Compound: N.N.[Cl][Pt][Cl] [Cisplatin, cisplatin]
- IC50 (A2780; A2780, 72 h): 21.5 ± 1.55 µM
- IC50 (ADDP; ADDP, 72 h): 112 ± 2.02 µM
- IC50 (HT29; HT29, 72 h): 77.8 ± 1.97 µM
- IC50 (MCF−7; MCF−7, 72 h): 33 ± 1.35 µM
- IC50 (MDA−MB−231; MDA−MB−231, 72 h): 13.1 ± 1.36 µM
- MtMp (mitochondrial membrane potential) (HT29 cells [1]; HT29, 24 h): 270.02 RFU
- MtMp (mitochondrial membrane potential) (HT29 cells [1]; HT29, 48 h): 237.68 RFU
- MtMp (mitochondrial membrane potential) (HT29 cells [1]; HT29, 72 h): 188.59 RFU
- MtMp (mitochondrial membrane potential) (MDA−MB−231 cells [2]; MDA−MB−231, 24 h): 208.24 RFU
- MtMp (mitochondrial membrane potential) (MDA−MB−231 cells [2]; MDA−MB−231, 48 h): 177.91 RFU
- MtMp (mitochondrial membrane potential) (MDA−MB−231 cells [2]; MDA−MB−231, 72 h): 154.83 RFU

Compound: Cc1cc2cccnc2c2ncccc12.N[C@H]1CCCC[C@@H]1N.O=[N+]([O-])[O-].O=[N+]([O-])[O-].[Pt+2] [Pt^II5MESS, [Pt(5-methyl-1,10-phenanthroline)(1S,2S-diaminocyclohexane)](NO3)2]
- potency relative to cisplatin (A2780; A2780, 72 h): 33 fold
- IC50 (A2780; A2780, 72 h): 0.65 ± 1.71 µM
- Selective cytotoxicity index (SCI) (A2780; IC50 MCF10A/IC50 A2780): 1.82
- potency relative to cisplatin (ADDP; ADDP, 72 h): 85 fold
- IC50 (ADDP; ADDP, 72 h): 1.32 ± 1.33 µM
- Selective cytotoxicity index (SCI) (ADDP; IC50 MCF10A/IC50 ADDP): 0.89
- potency relative to cisplatin (HT29; HT29, 72 h): 149 fold
- IC50 (HT29; HT29, 72 h): 0.55 ± 1.42 µM
- Selective cytotoxicity index (SCI) (HT29; IC50 MCF10A/IC50 HT29): 2.15
- Selective cytotoxicity index (SCI) (MCF−7; IC50 MCF10A/IC50 MCF−7): 1.37
- potency relative to cisplatin (MCF−7; MCF−7, 72 h): 38 fold
- IC50 (MCF−7; MCF−7, 72 h): 0.86 ± 1.67 µM
- Selective cytotoxicity index (SCI) (MDA−MB−231; IC50 MCF10A/IC50 MDA−MB−231): 2.27
- potency relative to cisplatin (MDA−MB−231; MDA−MB−231, 72 h): 25 fold
- IC50 (MDA−MB−231; MDA−MB−231, 72 h): 0.52 µM
- MtMp (mitochondrial membrane potential) (HT29 cells [1]; HT29, 24 h): 253.81 RFU
- MtMp (mitochondrial membrane potential) (HT29 cells [1]; HT29, 48 h): 211.88 RFU
- MtMp (mitochondrial membrane potential) (HT29 cells [1]; HT29, 72 h): 143.93 RFU
- MtMp (mitochondrial membrane potential) (MDA−MB−231 cells [2]; MDA−MB−231, 24 h): 230.62 RFU
- MtMp (mitochondrial membrane potential) (MDA−MB−231 cells [2]; MDA−MB−231, 48 h): 189.85 RFU
- MtMp (mitochondrial membrane potential) (MDA−MB−231 cells [2]; MDA−MB−231, 72 h): 150.71 RFU
- DEPs exhibited by the treatment (UpSet plot) (HT29 cells [3]): 34
- number of downregulated differentially expressed proteins (HT29 cells [3]; p < 0.05, fold change > 2): 118
- number of upregulated differentially expressed proteins (HT29 cells [3]; p < 0.05, fold change > 2): 110
- DEPs exhibited by the treatment (UpSet plot) (MDA−MB−231 cells [4]): 22
- number of downregulated differentially expressed proteins (MDA−MB−231 cells [4]; p < 0.05, fold change > 2): 75
- number of upregulated differentially expressed proteins (MDA−MB−231 cells [4]; p < 0.05, fold change > 2): 91
